According to patent US11406707B2, “STAT3 phosphorylation during graft-versus-host disease” (H. LEE MOFFITT CANCER CENTER AND RESEARCH INSTITUTE, INC., priority 2014, dated 2022):

How the values were obtained:
iTregs and Tconvs = test: iTreg and Tconv expansion from DC-allostimulated naive CD4+ T cells; assay type: cell-based, human
Method: To evaluate iTreg development, naive CD4^+ cells were isolated from nylon-wool-eluted T cells by magnetic-bead selection (Miltenyi Biotec), based on the positive expression of CD4 and lack of CD45RO, CD25, or both. In addition, CD127 staining of the naive CD4^+ cells was performed after the purification, to ensure depletion of natural Tregs from the cell product. Negligible amounts of CD127^-, CD25^Bright nTregs were observed after magnetic-bead purification. […] The T cells were harvested and surface stained on day 5 for CD3, -4, -25, and -127, followed by fixation and permeabilization (eBioscience), and then intracellular staining for Foxp3 [Liu, W., et al. (2006) J. Exp. Med. 203, 1701-1711; […]., et al. (2006) J. Exp. Med. 203, 1693-1700]. Tregs were characterized by gating on the live cells expressing surface CD3^+, CD4^+, and absence of CD127, followed by expression of Foxp3 and CD25^bright [Liu, W., et al. (2006) J. Exp. Med. 203, 1701-1711; […]., et al. (2006) J. Exp. Med. 203, 1693-1700]. The absolute number of iTregs and Tconv (CD4^+ CD25^-) cells was obtained by timed acquisition. The ratio of iTreg:Tconv was calculated based on the absolute number of each T-cell population.

Foxp3 TSDR = test: iTreg Foxp3 demethylation assay; assay type: cell-based, human; details: S3I-201 50 or 100 μM
Text: iTreg Foxp3 demethylation assay. […] (2013) J. Immunol. 190, 3180-3188; Miyao, T., et al. (2012) Immunity 36, 262-275]. The degree of Foxp3 TSDR demethylation among iTregs from DMSO-treated allo-MLRs, purified nTregs, and Tconvs served as the controls [[…]., et al. (2013) Blood 122(13):2251-61]. For these experiments, iTregs and nTregs were sorted to select the CD4^+ CD25^+ CD127^- population. PCR products were amplified by using methylation or demethylation specific TSDR forward and reverse primers from bisulphate-treated genomic DNA of sorted natural Tregs. DNA fragments were cloned into a pCR2.1-Topo vector (Life Technologies, Grand Island, N.Y., USA) and verified by DNA sequencing. The following TSDR primers and probes were used for PCR: methylation forward [NT] ID NO:1), reverse [NT] ID NO:2), and hydrolysis probe [NT] (SEQ ID NO:3); and demethylation forward [NT] ID NO:4), reverse [NT] ID NO:5), and hydrolysis probe [NT] ID NO:6). Standards were diluted at concentrations ranging from 2^7 to 2^3 plasmid copies of each methylation or demethylation TSDR. Genomic DNA was isolated by using the DNeasy Blood and Tissue kit (Qiagen, Valencia, Calif., USA) from sorted natural or expanded iTregs. Genomic DNA (200-500 ng) was treated with bisulfite from the EZ DNA Methylation-Gold Kit (Zymo Research, Irvine, Calif., USA). […]

CD8+ T cells = test: Evaluation of CD8 CTL capacity (CD107a, IFN-γ); assay type: cell-based, human; details: S3I-201 50 or 100 μM, day 5
Method: The naive CD8^+ T cells were purified by live cell sorting (CD4^− and CD45RO/CD25^−) and were stimulated with allogeneic moDCs (DC:T cell ratio of 1:30), with S3I-201 (50 or 100 μM) or DMSO added once on day 0. On day 5, the allosensitized CD8 T cells were harvested and stimulated with PMA/ionomycin in the presence of Golgi Stop and anti-CD107a, followed by surface CD8 and intracellular IFN-γ staining.

STAT3 Y705 = target: T1, STAT3 Y705 (Homo sapiens, UniProt P40763); test: IL-6-STAT3 Y705 phosphorylation in DC-allostimulated donor T-cells; assay type: cell-based; details: S3I-201 50 uM, 4 hours, IL-6 pulse
T1 construct: endogenous in cells; host or cells: primary human T cells from healthy-donor PBMC, allostimulated by monocyte-derived dendritic cells
T1 sequence (P40763 whole entry): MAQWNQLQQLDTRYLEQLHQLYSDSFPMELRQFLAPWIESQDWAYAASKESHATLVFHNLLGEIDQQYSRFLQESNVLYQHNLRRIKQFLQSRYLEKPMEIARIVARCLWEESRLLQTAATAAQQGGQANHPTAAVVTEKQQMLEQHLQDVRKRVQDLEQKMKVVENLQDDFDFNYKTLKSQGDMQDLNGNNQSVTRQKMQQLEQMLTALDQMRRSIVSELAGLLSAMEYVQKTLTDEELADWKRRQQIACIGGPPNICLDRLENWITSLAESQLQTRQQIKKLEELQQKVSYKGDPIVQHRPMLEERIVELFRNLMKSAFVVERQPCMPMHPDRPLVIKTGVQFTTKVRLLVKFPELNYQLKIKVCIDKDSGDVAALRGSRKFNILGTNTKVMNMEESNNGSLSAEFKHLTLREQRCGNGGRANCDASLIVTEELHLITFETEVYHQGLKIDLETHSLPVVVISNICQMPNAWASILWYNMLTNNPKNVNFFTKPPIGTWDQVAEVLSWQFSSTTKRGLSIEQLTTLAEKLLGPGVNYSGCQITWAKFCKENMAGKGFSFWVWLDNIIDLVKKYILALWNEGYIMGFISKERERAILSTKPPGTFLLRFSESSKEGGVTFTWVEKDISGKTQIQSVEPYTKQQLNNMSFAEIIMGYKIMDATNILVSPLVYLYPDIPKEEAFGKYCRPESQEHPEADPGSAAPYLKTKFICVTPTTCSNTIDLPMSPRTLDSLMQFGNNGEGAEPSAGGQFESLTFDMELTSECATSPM
Method: T-cells were serum-starved in RPMI treated with DMSO diluent control, rapamycin 100 ng/ml (EMD Millipore, Billerica, Mass. USA), or STAT3 inhibitor S3I-201 50 uM (H. Lee Moffitt Cancer Center, Drug Discovery Core) for 4 hours. For the STAT3 experiments, the T-cells were first DC-allostimulated (DC:T-cell ratio of 1:30) for 3 days to optimize surface expression of IL-6 receptor alpha and STAT3 signaling among healthy volunteers. The T-cells were then cytokine-pulsed for 15 minutes with either IL-2 (R&D Systems) to activate the Akt-mTOR-S6 pathway, or IL-6 to stimulate STAT3 phosphorylation. The cells were then fixed and permeabilized as described, and then stained for CD3, CD4 (STAT3 experiments), phosphorylated STAT3 Y705, and phosphorylated S6.

RORgammaT = RORgammaT expression by RT-PCR in allostimulated CD4+ T-cells; assay type: cell-based, human; details: S3I-201 alone, 5 days
Method: To optimize the detection of RORgammaT expression, CD4+ T-cells were isolated by magnetic bead negative selection (Miltenyi Biotec, Auburn, Calif. USA). […] (2011) Blood 118:5330-9; Betts, B C, et al. (2013) J Leukoc Biol. 2014 95(2):205-13; Betts, B C, et al. (2011) Blood 118:5340-3]. […] After the 5 day culture, the T-cells were harvested. Total RNA was extracted using TRIZOL (Life Technologies) according to manufacturer instructions. […] RT-PCR was carried out on an ABI 7900 instrument (Applied Biosystems) and performed [Ratajewski, M, et al. (2012) J Immunol 189:3034-42] with some modification using SYBR® Green PCR Master Mix (Life Technologies) as follows: 10 minutes at 95° C. and then 45 cycles each at 95° C. for 15 seconds, 59° C. for 45 seconds, and 72° C. for 10 seconds. The following primers were used: RORgammaT forward [NT] ID NO:7) and reverse […] NO:8); GAPDH forward [NT] ID NO:9) and reverse [NT] ID NO:10). PCR product purity was assessed by dissociation curves. The differences in gene expression were calculated by 2-ΔΔCt in triplicate. Data were normalized to GAPDH expression.

## Cc1ccc(S(=O)(=O)OCC(=O)Nc2ccc(C(=O)O)c(O)c2)cc1 [S3I-201]
iTregs and Tconvs; S3I-201 25 μM and 50 μM, dose-dependent, day 5
  absolute number of iTregs: significantly increased
iTregs and Tconvs; S3I-201 100 μM
  number of iTregs compared with DMSO: significantly reduced
iTregs and Tconvs; S3I-201, day 5
  number of alloreactive Tconvs: dramatically reduced
  ratio of iTregs to Tconvs: increased ratio
Foxp3 TSDR
  iTreg Foxp3 demethylation compared with DMSO: significantly enhanced
CD8+ T cells
  CTL potential vs DMSO control: not significantly different
  cytolytic potential by CD107a expression and intracellular IFN-γ production: intact cytolytic potential
STAT3 Y705
  IL-6-mediated STAT3 phosphorylation of Y705: significantly decreased
RORgammaT
  RORgammaT expression compared with DMSO: significant suppression
